Laboratory results reported in patent publication US20090018111A1, “Novel Antimicrobial Medicament” (priority 2004, published 2009).
Where two headings read alike, the source gives them in different places.

Columns and labels:
B. subtilis ATCC6633 = assay: Sensitivity test (agar dilution); assay type: cell-based, Bacillus subtilis; conditions: Bacillus subtilis, B. subtilis ATCC6633
In short: (§1)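 Under the Japan Chemotherapeutic Society protocol, MIC was recorded as the lowest agar concentration, in twofold dilutions in MHA, preventing growth of about 10^6 CFU/ml inocula. FIC indices were derived for drug pairs.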

E. coli ML1410 RP4 = assay: microbe, parasite or virus in culture; assay type: cell-based, Escherichia coli; conditions: Escherichia coli, E. coli ML1410 RP4
In short: as §1

Str. pyogenes Cook = assay: Sensitivity test (agar dilution); assay type: cell-based, Streptococcus pyogenes; conditions: Streptococcus pyogenes, Str. pyogenes Cook
In short: as §1

S. maltophilia IID1275 = assay: Sensitivity test (agar dilution); assay type: cell-based, Stenotrophomonas maltophilia; conditions: Stenotrophomonas maltophilia, S. maltophilia IID1275
In short: as §1

P. mirabiris GN2425 = assay: Sensitivity test (agar dilution); assay type: cell-based, Proteus mirabilis; conditions: Proteus mirabilis, P. mirabiris GN2425
In short: as §1

K. pneumoniae ATCC10031 = assay: Sensitivity test (agar dilution); assay type: cell-based, Klebsiella pneumoniae; conditions: Klebsiella pneumoniae, K. pneumoniae ATCC10031
In short: as §1

M. catarrhalis ATCC25238 = assay: Sensitivity test (agar dilution); assay type: cell-based, Moraxella catarrhalis; conditions: Moraxella catarrhalis, M. catarrhalis ATCC25238
In short: as §1

M. catarrhalis ATCC8176 = assay: Sensitivity test (agar dilution); assay type: cell-based, Moraxella catarrhalis; conditions: Moraxella catarrhalis, M. catarrhalis ATCC8176
In short: as §1

E. aerogenes ATCC13048 = assay: Sensitivity test (agar dilution); assay type: cell-based, Enterobacter aerogenes; conditions: Klebsiella aerogenes, E. aerogenes ATCC13048
In short: as §1

P. aeruginosa TL-2666 = assay: Sensitivity test (agar dilution); assay type: cell-based, Pseudomonas aeruginosa; conditions: Pseudomonas aeruginosa, P. aeruginosa TL-2666
In short: as §1

P. aeruginosa IFO3451 = assay: Sensitivity test (agar dilution); assay type: cell-based, Pseudomonas aeruginosa; conditions: Pseudomonas aeruginosa, P. aeruginosa IFO3451
In short: as §1

P. aeruginosa TL-2667 = assay: Sensitivity test (agar dilution); assay type: cell-based, Pseudomonas aeruginosa; conditions: Pseudomonas aeruginosa, P. aeruginosa TL-2667
In short: as §1

E. faecium ATCC19434 = assay: Sensitivity test (agar dilution); assay type: cell-based, Enterococcus faecium; conditions: Enterococcus faecium, E. faecium ATCC19434
In short: as §1

[1] = ATCC6633, drug alone, read-out: MIC alone
[2] = ML1410RP4, read-out: MIC alone, drug alone
[3] = drug alone, read-out: MIC alone
[4] = IID1275, drug alone, read-out: MIC alone
[5] = GN2425, drug alone, read-out: MIC alone
[6] = ATCC10031, drug alone, read-out: MIC alone
[7] = ATCC25238, drug alone, read-out: MIC alone
[8] = ATCC8176, drug alone, read-out: MIC alone
[9] = ATCC13048, drug alone, read-out: MIC alone
[10] = TL2666, drug alone, read-out: MIC alone
[11] = IFO3451, drug alone, read-out: MIC alone
[12] = TL2667, drug alone, read-out: MIC alone
[13] = ATCC19434, drug alone, read-out: MIC alone

Compound	MIC (B. subtilis ATCC6633; [1]) [µg/mL]	MIC (E. coli ML1410 RP4; [2]) [µg/mL]	MIC (Str. pyogenes Cook; [3]) [µg/mL]	MIC (S. maltophilia IID1275; [4]) [µg/mL]	MIC (P. mirabiris GN2425; [5]) [µg/mL]	MIC (K. pneumoniae ATCC10031; [6]) [µg/mL]	MIC (M. catarrhalis ATCC25238; [7]) [µg/mL]	MIC (M. catarrhalis ATCC8176; [8]) [µg/mL]	MIC (E. aerogenes ATCC13048; [9]) [µg/mL]	MIC (P. aeruginosa TL-2666; [10]) [µg/mL]	MIC (P. aeruginosa IFO3451; [11]) [µg/mL]	MIC (P. aeruginosa TL-2667; [12]) [µg/mL]	MIC (E. faecium ATCC19434; [13]) [µg/mL]	further results
CC(C)(O/N=C(\C(=O)N[C@@H]1C(=O)N2C(C(=O)[O-])=C(C[n+]3ccccc3)CS[C@H]12)c1csc(N)n1)C(=O)O [CAZ, ceftazidime]	2	0.5	0.125	> 32	0.063	0.031	0.016	0.016	0.5	0.5	1	1	> 32	MIC (B. subtilis ATCC6633; ATCC6633, Concomitant (CAZ:SM = 1:1), read-out: MIC concomitant): ≤ 0.002 µg/mL; MIC (E. coli ML1410 RP4; ML1410RP4, read-out: MIC concomitant, Concomitant (CAZ:SM = 1:1)): 0.125 µg/mL; MIC (Str. pyogenes Cook; Concomitant (CAZ:SM = 1:1), read-out: MIC concomitant): 0.004 µg/mL; MIC (S. maltophilia IID1275; IID1275, Concomitant (CAZ:SM = 1:1), read-out: MIC concomitant): > 32 µg/mL; MIC (P. mirabiris GN2425; GN2425, Concomitant (CAZ:SM = 1:1), read-out: MIC concomitant): 0.031 µg/mL; MIC (K. pneumoniae ATCC10031; ATCC10031, Concomitant (CAZ:SM = 1:1), read-out: MIC concomitant): 0.008 µg/mL; MIC (M. catarrhalis ATCC25238; ATCC25238, Concomitant (CAZ:SM = 1:1), read-out: MIC concomitant): ≤ 0.002 µg/mL; MIC (M. catarrhalis ATCC8176; ATCC8176, Concomitant (CAZ:SM = 1:1), read-out: MIC concomitant): ≤ 0.002 µg/mL; MIC (E. aerogenes ATCC13048; ATCC13048, Concomitant (CAZ:SM = 1:1), read-out: MIC concomitant): 8 µg/mL; MIC (P. aeruginosa TL-2666; TL2666, Concomitant (CAZ:SM = 1:1), read-out: MIC concomitant): 8 µg/mL; MIC (P. aeruginosa IFO3451; IFO3451, Concomitant (CAZ:SM = 1:1), read-out: MIC concomitant): 2 µg/mL; MIC (P. aeruginosa TL-2667; TL2667, Concomitant (CAZ:SM = 1:1), read-out: MIC concomitant): 8 µg/mL; MIC (E. faecium ATCC19434; ATCC19434, Concomitant (CAZ:SM = 1:1), read-out: MIC concomitant): 0.125 µg/mL
C[C@H]1[C@H](NC(=O)/C(=N\OC(C)(C)C(=O)O)c2csc(N)n2)C(=O)N1S(=O)(=O)O [AZT, aztreonam]	> 32	0.125	16	> 32	0.004	0.004	0.125	0.25	0.063	2	2	2	> 32	MIC (B. subtilis ATCC6633; ATCC6633, Concomitant (AZT:SM = 1:1), read-out: MIC concomitant): ≤ 0.002 µg/mL; MIC (E. coli ML1410 RP4; ML1410RP4, read-out: MIC concomitant, Concomitant (AZT:SM = 1:1)): 0.063 µg/mL; MIC (Str. pyogenes Cook; Concomitant (AZT:SM = 1:1), read-out: MIC concomitant): 0.004 µg/mL; MIC (S. maltophilia IID1275; IID1275, Concomitant (AZT:SM = 1:1), read-out: MIC concomitant): > 32 µg/mL; MIC (P. mirabiris GN2425; GN2425, Concomitant (AZT:SM = 1:1), read-out: MIC concomitant): 0.004 µg/mL; MIC (K. pneumoniae ATCC10031; ATCC10031, Concomitant (AZT:SM = 1:1), read-out: MIC concomitant): 0.004 µg/mL; MIC (M. catarrhalis ATCC25238; ATCC25238, Concomitant (AZT:SM = 1:1), read-out: MIC concomitant): ≤ 0.002 µg/mL; MIC (M. catarrhalis ATCC8176; ATCC8176, Concomitant (AZT:SM = 1:1), read-out: MIC concomitant): ≤ 0.002 µg/mL; MIC (E. aerogenes ATCC13048; ATCC13048, Concomitant (AZT:SM = 1:1), read-out: MIC concomitant): 8 µg/mL; MIC (P. aeruginosa TL-2666; TL2666, Concomitant (AZT:SM = 1:1), read-out: MIC concomitant): 8 µg/mL; MIC (P. aeruginosa IFO3451; IFO3451, Concomitant (AZT:SM = 1:1), read-out: MIC concomitant): 2 µg/mL; MIC (P. aeruginosa TL-2667; TL2667, Concomitant (AZT:SM = 1:1), read-out: MIC concomitant): 8 µg/mL; MIC (E. faecium ATCC19434; ATCC19434, Concomitant (AZT:SM = 1:1), read-out: MIC concomitant): 0.125 µg/mL
